# Legend:
# Phytophthora infestans = format: in vivo; conditions: 300 ppm active compound, tomato plants sprayed to run-off, inoculated next day, assessed after 6 days; untreated plants 90% infected
# Botrytis cinerea = test: Preventative control of grey mold (Botrytis cinerea) on leaves of green pepper (greenhouse test); format: in vivo; conditions: 300 ppm active compound, green pepper seedlings sprayed to run-off, inoculated next day, assessed after 5 days; untreated plants 90% infected
compound,measurement,setting,value
"CC(C)(C)C(O)(CCc1ccc(Cl)cc1Cl)Cn1nc[nH]c1=S (stereo not shown) [Example 1, 1-(2-(2,4-dichlorophenethyl)-2-hydroxy-3,3-dimethylbutyl)-1H-1,2,4-triazole-5(4H)-thione]",infection (fungal attack on the leaves visually assessed as % diseased leaf area),Phytophthora infestans,15%
"CC(C)(C)C(O)(CCc1ccc(F)cc1F)Cn1nc[nH]c1=S (stereo not shown) [Example 2, 1-(2-(2,4-Difluorophenethyl)-2-hydroxy-3,3-dimethylbutyl)-1H-1,2,4-triazole-5(4H)-thione]",melting point,,130 to 132 °C
"CC(C)(C)C(O)(CCc1ccc(Cl)c(Cl)c1)Cn1nc[nH]c1=S (stereo not shown) [Example 3, 1-(2-(3,4-Dichlorophenethyl)-2-hydroxy-3,3-dimethylbutyl)-1H-1,2,4-triazole-5(4H)-thione]",melting point,,155 to 157 °C
"CC(C)(C)C(O)(CCc1ccc(F)cc1)Cn1nc[nH]c1=S (stereo not shown) [Example 4, 1-(2-(4-Fluorophenethyl)-2-hydroxy-3,3-dimethylbutyl)-1H-1,2,4-triazole-5(4H)-thione]",infection (fungal attack on the leaves visually assessed as % diseased leaf area),Botrytis cinerea,7%
same,melting point,,134 to 135 °C
"Cc1ccc(CCC(O)(Cn2nc[nH]c2=S)C(C)(C)C)cc1 (stereo not shown) [Example 5, 1-(2-hydroxy-3,3-dimethyl-2-(4-methylphenethyl)butyl)-1H-1,2,4-triazole-5(4H)-thione]",melting point,,137 to 138 °C
"CC(C)(C)C(O)(CCc1ccc(C(F)(F)F)cc1)Cn1nc[nH]c1=S (stereo not shown) [Example 6, 1-(2-Hydroxy-3,3-dimethyl-2-(4-(trifluoromethyl)phenethyl)butyl)-1H-1,2,4-triazole-5(4H)-thione]",melting point,,139 to 140 °C
